Tests used:
[1] = target: adenosine A1 (human) membrane (Homo sapiens (Human), UniProt P30542); assay: A1 adenosine receptor radioligand binding assay ([3H] DPCPX); settings: 200 nM compound; radioligand [3H] DPCPX 1 nM
Description: A second A1 adenosine receptor radioligand binding assay protocol was used. The protocol used adenosine A1 (human) membrane (PerkinElmer ES-010-M400UA) at a concentration of 2.5 μg/well/100 μl and the radioligand [3H] DPCPX (Cat No. PerkinElmer-NET974250UC) at a final concentration of 1 nM. Testing compounds were tested at a final concentration of 200 nM. CGS-15943, the reference compound, was tested in an 8-point 4-fold serial dilution, starting at a top concentration of 1 μM. 1 μl of compounds/high control/low control was transferred to the assay plate according to a plate map, followed by 100 μl of membrane stocks and 100 μl of radioligand, in assay buffer (25 mM HEPES, 5 mM MgCl2, 1 mM CaCl2, 100 mM NaCl, pH 7.4). The plate was sealed and incubated at RT for 1 hour. Unifilter-96 GF/C filter plates (Perkin Elmer Cat #6005174) were soaked with 50 μl of 0.3% PEI per well for at least 0.5 hour at room temperature. When the binding assays were completed, the reaction mixtures were filtered through GF/C plates using Perkin Elmer Filtermate Harvester, and each plate washed 4 times with cold wash buffer (25 mM HEPES, 5 mM MgCl2, 1 mM CaCl2, 100 mM NaCl, pH 7.4). The filter plates were dried for 1 hour at 50 degrees. After drying, the bottom of the filter plate wells was sealed, 50 μl of Perkin Elmer Microscint 20 cocktail was added, and the top of the filter plate was sealed. ^3H trapped on the filter was counted using Perkin Elmer MicroBeta2 Reader. The data were analyzed with GraphPad Prism 5 to obtain binding IC50 values for the reference compound. The “Inhibition [% Control]” was calculated using the equation: % Inh=(1-Background subtracted Assay value/Background subtracted HC value)*100, where HC is high control.

[2] = target: HEK-293 cells expressing human recombinant adenosine A2A receptor (Homo sapiens (Human), UniProt P29274); assay: cAMP assay (Assay 2), A2A receptor; type: cell-based
Description: (§1) The functional activity of compounds was tested using Assay 2, below, to detect the presence of cAMP. Assay 1 is an alternative assay for this purpose. Activation of G-protein coupled receptors (such as A2A) results in activation of adenylyl cyclase which converts ATP into cAMP which is used as a downstream signaling molecule. Therefore, molecules which act as GPCR (or specifically A2A receptor) antagonists cause a decrease in intracellular cAMP concentration.
(§2) Assay 2 (Table B2): This assay used HEK-293 cells expressing human recombinant adenosine A2A receptor (or, alternatively, A1 receptor) that were grown prior to the test in media without antibiotic. 100 nL of test articles at 100x of final concentration were transferred to assay plate by Echo. Cells were washed twice with 5 mL of PBS and 10 μL of cells were mixed with 5 mL PBS. After aspirating the PBS and adding 1.5 mL versine, cells were incubated at 37° C. for 2-5 min. After centrifugation, 4 mL of medium was added and adjusted cell density to 5,000 cells/well with Stimulation Buffer. 10 μL of cells were aliquoted to the assay plate, centrifuged at 1000 rpm for 1 minute, and incubated for 60 minutes at room temperature. 5 μL 4× Eu-cAMP tracer solution and 5 μL 4× Ulight™-anti-cAMP solution were added to assay plate, followed by centrifugation and 60-minute incubation at room temperature. Plates were read on EnVision.

[3] = target: adenosine A2a (human) membrane (Homo sapiens (Human), UniProt P29274); assay: A2A adenosine receptor radioligand binding assay ([3H] CGS-21680); settings: radioligand [3H] CGS-21680 6 nM
Description: A second A2A adenosine receptor radioligand binding assay protocol was used. The protocol used adenosine A2a (human) membrane (PerkinElmer RBHA2AM400UA) at a concentration of 5 μg/well/100 μl and the radioligand [3H] CGS-21680 (Cat No. PerkinElmer-NET1021250UC) at a final concentration of 6 nM. Testing compounds were diluted with DMSO to make 8-point 4-fold serial dilution, starting at 0.2 mM. CGS-15943 was the reference compound. 1 μl of compounds/high control/low control was transferred to the assay plate according to a plate map, followed by 100 μl of membrane stocks and 100 μl of radioligand, in assay buffer (50 mM Tris-HCl, 10 mM MgCl2, 1 mM EDTA, pH 7.4). The plate was sealed and incubated at RT for 2 hours. Unifilter-96 GF/C filter plates (Perkin Elmer Cat #6005174) were soaked with 50 μl of 0.3% PEI per well for at least 0.5 hour at room temperature. When the binding assays were completed, the reaction mixtures were filtered through GF/C plates using Perkin Elmer Filtermate Harvester, and each plate washed 4 times with cold wash buffer (50 mM Tris-HCl, 154 mM NaCl, pH 7.4). The filter plates were dried for 1 hour at 50 degrees. After drying, the bottom of the filter plate wells was sealed, 50 μl of Perkin Elmer Microscint 20 cocktail was added, and the top of the filter plate was sealed. ^3H trapped on the filter was counted using Perkin Elmer MicroBeta2 Reader. The data were analyzed with GraphPad Prism 5 to obtain binding IC50 values. The “Inhibition [% Control]” was calculated using the equation: % Inh=(1-Background subtracted Assay value/Background subtracted HC value)*100, where HC is high control.

[4] = target: HEK-293 cells expressing human recombinant adenosine A1 receptor (Homo sapiens (Human), UniProt P30542); assay: cAMP assay (Assay 2), A1 receptor; type: cell-based
Description: as §1, §2

Sequence of HEK-293 cells expressing human recombinant adenosine A1 receptor (P30542 whole entry): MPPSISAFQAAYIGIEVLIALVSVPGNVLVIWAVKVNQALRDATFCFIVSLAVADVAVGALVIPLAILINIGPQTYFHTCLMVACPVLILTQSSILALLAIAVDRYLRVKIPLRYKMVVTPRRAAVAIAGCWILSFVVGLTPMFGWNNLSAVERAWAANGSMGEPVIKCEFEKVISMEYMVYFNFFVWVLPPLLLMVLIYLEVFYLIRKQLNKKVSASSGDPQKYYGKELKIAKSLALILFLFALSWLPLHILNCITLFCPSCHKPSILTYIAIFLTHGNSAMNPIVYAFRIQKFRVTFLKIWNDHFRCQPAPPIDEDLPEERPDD
Sequence of adenosine A1 (human) membrane (P30542 whole entry): as above
Sequence of HEK-293 cells expressing human recombinant adenosine A2A receptor (P29274 whole entry): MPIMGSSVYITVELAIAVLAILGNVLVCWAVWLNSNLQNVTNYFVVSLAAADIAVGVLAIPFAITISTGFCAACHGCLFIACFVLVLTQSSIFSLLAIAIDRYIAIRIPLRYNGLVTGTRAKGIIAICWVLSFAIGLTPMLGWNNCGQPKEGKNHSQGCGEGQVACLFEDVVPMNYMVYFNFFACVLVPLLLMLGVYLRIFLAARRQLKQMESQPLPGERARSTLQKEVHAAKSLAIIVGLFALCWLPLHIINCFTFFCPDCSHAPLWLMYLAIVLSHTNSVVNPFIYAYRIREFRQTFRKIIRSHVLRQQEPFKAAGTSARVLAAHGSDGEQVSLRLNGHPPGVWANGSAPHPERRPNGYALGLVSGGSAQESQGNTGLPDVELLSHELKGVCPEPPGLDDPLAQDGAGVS
Sequence of adenosine A2a (human) membrane (P29274 whole entry): as above

Row | Compound | inhibition at 0.2 µM [1] [%] | IC50 [2] [nM] | IC50 [3] [nM] | IC50 [4] [nM]
1 | N#Cc1cccc(-c2nc(N)cnc2-c2cc(Cl)c3ncccc3c2)c1F [2-10, 3-(6-amino-3-(8-chloroquinolin-6-yl)pyrazin-2-yl)-2-fluorobenzonitrile] | 79 | 39 | 3.1 | 27
2 | Nc1nc(-c2ccc(F)cc2)c(-c2cc(Cl)c3ncccc3c2)nc1C(=O)NCCC1CCOCC1 [Compound No. 101, 3-amino-6-(8-chloroquinolin-6-yl)-5-(4-fluorophenyl)-N-(2-(tetrahydro-2H-pyran-4-yl)ethyl)pyrazine-2-carboxamide] | 66 | 238 | – | –
3 | C[C@@H](NC(=O)c1nc(-c2ccc3ncccc3c2)c(-c2ccn(C)n2)nc1N)c1ccccn1 [Compound No. 110, (R)-3-amino-5-(1-methyl-1H-pyrazol-3-yl)-N-(1-(pyridin-2-yl)ethyl)-6-(quinolin-6-yl)pyrazine-2-carboxamide] | 38 | 75 | 2.9 | –
4 | CC(Oc1nc(-c2cc(Cl)c3ncccc3c2)c(-c2ccc(F)cc2)nc1N)c1ccccn1 (centres unmarked) [Compound No. 103, 5-(8-chloroquinolin-6-yl)-6-(4-fluorophenyl)-3-(1-(pyridin-2-yl)ethoxy)pyrazin-2-amine] | 19 | 1420 | – | –
5 | C[C@@H](NC(=O)c1nc(-c2cc(Cl)c3[nH]ncc3c2)c(-c2ccc(F)cc2)nc1N)c1ccccn1 [Compound No. 104, (R)-3-amino-6-(7-chloro-1H-indazol-5-yl)-5-(4-fluorophenyl)-N-(1-(pyridin-2-yl)ethyl)pyrazine-2-carboxamide] | 68 | 76 | 0.9 | 117
6 | CC(NC(=O)c1nc(-c2cc(Cl)c3ncccc3c2)c(-c2ccc(F)cc2)nc1N)c1cccc(C#N)n1 (centres unmarked) [Compound No. 102, 3-amino-6-(8-chloroquinolin-6-yl)-N-(1-(6-cyanopyridin-2-yl)ethyl)-5-(4-fluorophenyl)pyrazine-2-carboxamide] | 93 | 143 | 1.9 | 24
7 | N#Cc1cccc(-c2nc(N)cnc2-c2cc(Cl)c3ncccc3c2)c1 [Compound No. 2-6, 3-(6-amino-3-(8-chloroquinolin-6-yl)pyrazin-2-yl)benzonitrile] | 90 | 44 | 3.7 | 5
8 | Cc1c(C#N)cccc1-c1nc(N)cnc1-c1cc(Cl)c2ncccc2c1 [2-2, 3-(6-amino-3-(8-chloroquinolin-6-yl)pyrazin-2-yl)-2-methylbenzonitrile] | 30 | 327 | – | –
9 | N#Cc1cc(-c2nc(N)cnc2-c2cc(Cl)c3ncccc3c2)ccc1F [Compound No. 2-13, 5-(6-amino-3-(8-chloroquinolin-6-yl)pyrazin-2-yl)-2-fluorobenzonitrile] | 54 | 527 | – | –

Other lines, results leading:

Row | inhibition at 0.2 µM [1] [%] | IC50 [2] [nM] | IC50 [3] [nM] | IC50 [4] [nM] | Compound
10 | 47 | 55 | 1.3 | 326 | CC(C)(NC(=O)c1nc(-c2ccc3ncccc3c2)c(-c2ccccc2)nc1N)c1ccccn1 [compound 108, 3-amino-5-phenyl-N-(2-(pyridin-2-yl)propan-2-yl)-6-(quinolin-6-yl)pyrazine-2-carboxamide]
11 | 96 | 33 | < 0.6 | – | C[C@H](NC(=O)c1nc(-c2cc(Cl)c3ncccc3c2)c(-c2ccccc2)nc1N)c1cccc(C#N)n1 [Compound No. 122, (S)-3-amino-6-(8-chloroquinolin-6-yl)-N-(1-(6-cyanopyridin-2-yl)ethyl)-5-phenylpyrazine-2-carboxamide]
12 | 63 | 25 | 2.5 | 219 | C[C@H](NC(=O)c1nc(-c2ccc3ncccc3c2)c(-c2ccccc2)nc1N)c1ccccn1 [compound 75, (S)-3-amino-5-phenyl-N-(1-(pyridin-2-yl)ethyl)-6-(quinolin-6-yl)pyrazine-2-carboxamide]
13 | 61 | 53 | 3.1 | 403 | CC(NC(=O)c1nc(-c2ccc3ncccc3c2)c(-c2ccccc2)nc1N)c1ccccn1 (centres unmarked) [compound 73, 3-amino-5-phenyl-N-(1-(pyridin-2-yl)ethyl)-6-(quinolin-6-yl)pyrazine-2-carboxamide]
14 | 92 | 18 | 0.8 | 11 | N#Cc1cccc(CNC(=O)c2nc(-c3ccc4ncccc4c3)c(-c3ccccc3)nc2N)n1 [compound 98, 3-amino-N-((6-cyanopyridin-2-yl)methyl)-5-phenyl-6-(quinolin-6-yl)pyrazine-2-carboxamide]
15 | – | 27 | 1.2 | – | C[C@@H](NC(=O)c1nc(-c2ccc3ncccc3c2)c(-c2ccccc2)nc1N)c1ncccn1 [Compound No. 125, (R)-3-amino-5-phenyl-N-(1-(pyrimidin-2-yl)ethyl)-6-(quinolin-6-yl)pyrazine-2-carboxamide]
16 | 41 | 110 | 1.8 | – | C[C@H](NC(=O)c1nc(-c2ccc3ncccc3c2)c(-c2ccccc2)nc1N)c1ncccn1 [Compound No. 126, (S)-3-amino-5-phenyl-N-(1-(pyrimidin-2-yl)ethyl)-6-(quinolin-6-yl)pyrazine-2-carboxamide]
17 | 49 | 191 | – | – | CCN(CC)CCNC(=O)c1nc(-c2ccc3ncccc3c2)c(-c2ccccc2)nc1N [compound 107, 3-amino-N-(2-(diethylamino)ethyl)-5-phenyl-6-(quinolin-6-yl)pyrazine-2-carboxamide]
18 | – | 58 | 16 | – | Nc1nc(-c2ccccc2)c(-c2ccc3ncccc3c2)nc1C(=O)NCCC1CCOCC1 [compound 89, 3-amino-5-phenyl-6-(quinolin-6-yl)-N-(2-(tetrahydro-2H-pyran-4-yl)ethyl)pyrazine-2-carboxamide]
19 | 45 | 24 | 3.4 | 804 | C[C@@H](NC(=O)c1nc(-c2ccc3ncccc3c2)c(-c2ccccc2)nc1N)c1ccccn1 [compound 76, (R)-3-amino-5-phenyl-N-(1-(pyridin-2-yl)ethyl)-6-(quinolin-6-yl)pyrazine-2-carboxamide]

— patent US11306071B2, “Heterocyclic compounds as adenosine antagonists” (Nuvation Bio Inc., priority 2019, dated 2022)
